Values quoted from earlier work as cited in US11234935B2, “Method of inducing satiety” (PERORA GMBH, priority 2015, dated 2022).

Settings: rat feeding study; independent from intake

In the case of CCCCCCCCCCCCCCCCCC(=O)OCC(COC(=O)CCCCCCCCCCCCCCCCC)OC(=O)CCCCCCCCCCCCCCCCC [tristearin], the “true digestibility of stearic acid from tristearin” value is given as 0.15 g/g.
